Reference: US5760036A, “Aminediol protease inhibitors” (E. R. Squibb & Sons, Inc., priority 1995, dated 1998)
Counter-ions that a name gives are not always drawn.

Columns and labels:
HIV protease = target: T1, HIV protease (Human immunodeficiency virus type 1 group M subtype B, UniProt P04585); test: HIV Protease Assay; type: biochemical; settings: pH 5.5, 10 μM inhibitor, 4% DMSO, 450 μM substrate, pH 5.5, 30 minutes at 37° C., RP-HPLC; read-out: HIV Protease % Inhibition at 10 μM
T1 construct: and purified protease
In short: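 At a single final concentration of 10 μM (4% DMSO), inhibitors were added to a 30-minute, 37° C reaction of purified enzyme with 450 μM H2N-Val-Ser-Gln-Asn-(β-naphthyl-alanine)-Pro-Val-Ile-OH at pH 5.5 (sodium acetate, BSA). Hydrolysis was quantified by reverse-phase HPLC with 220 nm detection after acid quench.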

[1] = system: RF strain of HIV (CEM-SS cells); test: Cell Culture Anti-HIV Activity (cell viability, formazan); type: cell-based; settings: Human immunodeficiency virus 1, CEM-SS, 144 h, CEM-SS cells, RF strain of HIV, multiplicity of infection 0.04, 6 days at 37° C., 450 nm; read-out: HIV (CEM Cells) IC50
In short: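 Half-log compound dilutions added to CEM-SS cells (5000/well) carrying HIV RF (MOI 0.04), 6 days, 37° C. Cell protection measured as formazan from tetrazolium, A450. IC50: drug level restoring infected-cell formazan to 50% of the uninfected untreated control.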

| Structure (SMILES) | inhibition at 10 µM (HIV protease) [%] | IC50 [1] [nM] |
| --- | --- | --- |
| CC(C)(C)OC(=O)N[C@@H](Cc1ccccc1)[C@H](O)CNC[C@@H](O)[C@H](Cc1ccccc1)NC(=O)OC(C)(C)[C@H](O)CO [Compound 228, [1S-(1R*,2S*),(S*)]-[Iminobis[2-hydroxy-1-(phenylmethyl)-3,1-propanediyl]]biscarbamic acid, 2,3-dihydroxy-1,1-dimethylpropyl 1,1-dimethylethyl ester] | 98 | 700 |
| CC(C)(C)OC(=O)N[C@@H](Cc1ccccc1)[C@H](O)CNC[C@@H](O)[C@H](Cc1ccccc1)NC(=O)O[C@H]1COC[C@@H]1O [Compound 316, [1S-(1R*,2S*), (3S-trans)]-[Iminobis[2-hydroxy-1-(phenylmethyl)-3,1-propanediyl]]bis[carbamic acid], 4-hydroxy-3-tetrahydrofuranyl 1,1-dimethylethyl ester] | 97 | 620 |
| CC(C)(C)OC(=O)N[C@@H](Cc1ccccc1)[C@H](O)CNC[C@@H](O)[C@H](Cc1ccccc1)NC(=O)C1NC(=O)c2ccccc21 (stereo partly drawn) [Compound 223, [1S-[1R*,2S*(2S*,3R*)]]-[3-[[3-[[(2,3-Dihydro-3-oxo-1H-isoindol-1-yl)carbonyl]amino]-2-hydroxy-4-phenylbutyl]amino]-2-hydroxy-1-(phenylmethyl)propyl]carbamic acid, 1,1-dimethylethyl ester] | 89 | 1400 |
| CC(C)[C@H](NC(=O)c1ccc2ccccc2n1)C(=O)N[C@@H](Cc1ccccc1)[C@H](O)CNC[C@@H](O)[C@H](Cc1ccccc1)NC(=O)OC(C)(C)C [Compound 80, [S-[1R*,2S*(2S*,3R*)]]-N-[3-[[3-[[(1,1-Dimethylethoxy)carbonyl]amino]-2-hydroxy-4-phenylbutyl]amino]-2-hydroxy-1-(phenylmethyl)propyl]-N2-(2-quinolinylcarbonyl)-L-valinamide] | 98 | 300 |
| CC(C)[C@H](NC(=O)N(C)Cc1nc2ccccc2[nH]1)C(=O)N[C@@H](Cc1ccccc1)[C@H](O)CNC[C@@H](O)[C@H](Cc1ccccc1)NC(=O)OC(C)(C)C (relative stereo) [Compound 245, [1R*,2S*(2S*,3R*)]-N-[3-[[3-[[(1,1-Dimethylethoxy)carbonyl]amino]-2-hydroxy-4-phenylbutyl]amino]-2-hydroxy-1-(phenylmethyl)propyl]-N^2-[[(1H-benzimidazol-2-yl-methyl)methylamino]carbonyl]-L-valinamide] | 100 | 1800 |
| CC(C)(C)OC(=O)N[C@@H](Cc1ccc(OCCc2ccccn2)cc1)[C@H](O)CNC[C@@H](O)[C@H](Cc1ccccc1)NC(=O)OC(C)(C)CO [Compound 298, [1S-[1R*,2S*(2S*,3R*)]]-[2 Hydroxy-3-[[2-hydroxy-3-[[(2-hydroxy-1,1-dimethylethoxy)carbonyl]amino]-4-phenylbutyl]amino]-1-[[4-[2-(2-pyridinyl)ethoxy]phenyl]methyl]propyl]carbamic acid, 1,1-dimethylethyl ester] | 100 | 60 |
| CC(C)[C@H](NC(=O)CNC(=O)OC(C)(C)C)C(=O)N[C@@H](Cc1ccccc1)[C@H](O)CNC[C@@H](O)[C@H](Cc1ccccc1)NC(=O)[C@@H](NC(=O)CNC(=O)OC(C)(C)C)C(C)C [Compound 99, [S-(1R*,2S*)]-N,N'-[Iminobis[2-hydroxy-1-(phenylmethyl)-3,1-propanediyl]]bis [N^2-[[[1,1-dimethylethoxy)carbonyl]-amino]acetyl]-L-valinamide]] | 99 | > 100000 |
| CC(C)[C@H](NC(=O)OCc1ccccn1)C(=O)N[C@@H](Cc1ccccc1)[C@H](O)CNC[C@@H](O)[C@H](Cc1ccccc1)NC(=O)OC(C)(C)C [Compound 70, [S-[1R*,2S*(2S*,3R*)]]-N-[3-[[3-[[(1,1-Dimethylethoxy)carbonyl]amino]-2-hydroxy-4-phenylbutyl]amino]-2-hydroxy-1-(phenylmethyl)-propyl]-N^2-(2-pyridinylmethoxy)carbonyl]-L-valinamide] | 100 | 500 |

More lines, main results first:

| inhibition at 10 µM (HIV protease) [%] | Structure (SMILES) | IC50 [1] [nM] |
| --- | --- | --- |
| 100 | CC(O)COc1ccc(C[C@H](NC(=O)OC(C)(C)C)[C@H](O)CNC[C@@H](O)[C@H](Cc2ccccc2)NC(=O)OC(C)(C)C)cc1 (stereo partly drawn) [Compound 306, [1S-[1R*, 2S* (2S*, 3R*)]-[3-[[(1,1-Dimethylethoxy)carbonyl]amino]-2-hydroxy-4-[4-(2-hydroxypropoxy)phenyl]butyl]amino]-2-hydroxy-1-(phenylmethyl)propyl]carbamic acid, 1.1-dimethylethyl ester] | 60 |
| 100 | COC(=O)N(C)[C@H](C(=O)N[C@@H](Cc1ccccc1)[C@H](O)CNC[C@@H](O)[C@H](Cc1ccccc1)NC(=O)OC(C)(C)C)C(C)(C)C [Compound 320, [1S-[1R*,2S*,(2S*,3R*)]-[2,2-Dimethyl-1-[[[3-[[3-(1,1-dimethylethoxy)-carbonyl]amino]-2-hydroxy-4-phenylbutyl]amino]-2-hydroxy-1-(phenylmethyl)propyl]amino]-carbonyl]propyl]methylcarbamic acid, methyl ester] | 220 |
| 98 | CC(C)(C)OC(=O)N[C@@H](Cc1ccccc1)[C@H](O)CNC[C@@H](O)[C@H](CC1CCCCC1)NC(=O)OC(C)(C)C [Compound 15, [1S-[1R*,2S*(2S*,3R*)]]-[3-[[4-Cyclohexyl-3-[[(1,1-dimethylethoxy)carbonyl]-amino]-2-hydroxybutyl]amino-2-hydroxy-1-(phenylmethyl)propyl]carbamic acid, 1,1-dimethylethyl ester] | 380 |
| 99 | CC(C)(C)OC(=O)N[C@@H](Cc1ccccc1)[C@H](O)CNC[C@@H](O)[C@H](Cc1ccccc1)NC(=O)[C@@H](NC(=O)OCc1cc2ccncc2o1)C(C)(C)C [Compound 339, [S-[1R*,2S*(2S*,3R*)]]-[2,2-Dimethyl-1-[[[3-[[3-[[(1,1-dimethylethoxy)carbonyl]amino]-2-hydroxy-4-phenylbutyl]amino]-2-hydroxy-1-(phenylmethyl)-propyl]amino]carbonyl]propyl]carbamic acid, (2-furo[2,3-c]pyridinyl) methyl ester] | 12 |
| 99 | CC(C)(C)OC(=O)N[C@@H](Cc1ccccc1)[C@H](O)CNC[C@@H](O)[C@H](Cc1ccc(OCCOc2cccnc2)cc1)NC(=O)OC(C)(C)C [Compound 304, [1S-[1R*,2S* (2S*, 3R*)]]-[3-[[3-[[(1,1-Dimethylethoxy)carbonyl]amino]-2-hydroxy-4-[4-[2-(3-pyridinyloxy)ethoxylphenyl]butyl]amino]-2-hydroxy-1-(phenylmethyl)propyl]carbamic acid, 1,1-dimethylethyl ester] | 30 |
| 100 | CC(C)[C@H](NC(=O)OCc1ccccc1)C(=O)N[C@@H](Cc1ccccc1)[C@H](O)CNC[C@@H](O)[C@H](Cc1ccccc1)NC(=O)[C@H](CC(N)=O)NC(=O)OCc1ccccc1 [Compound 112, [S-[1R*,2S*(2S*,3R*)]]-N-[2-Hydroxy-3-[[2-hydroxy-4-phenyl-3-[[N-[(phenyl-methoxy)carbonyl]-L-valyl]amino]butyl]amino]-1-(phenylmethyl)propyl]-N^2-[(phenylmethoxy)-carbonyl]-L-asparaginamide, monohydrochloride] | > 8600 |
| 100 | CC(C)(CO)OC(=O)N[C@@H](Cc1ccccc1)[C@H](O)CNC[C@@H](O)[C@H](Cc1ccccc1)NC(=O)[C@](C)(O)C(C)(C)C [Compound 333, [1S-[1R*,2S*[2S*3R*(S*)]]]-[3-[[3-[(2-Hydroxy-2,3,3-trimethyl-1-oxobutyl)amino]-2-hydroxy-4-phenylbutyl]amino-2-hydroxy-1-(phenylmethyl)propyl]carbamic acid, 2-hydroxy-1,1-dimethylethyl ester] | 150 |
| 100 | CC(C)(CO)OC(=O)N[C@@H](Cc1ccccc1)[C@H](O)CNC[C@@H](O)[C@H](Cc1ccccc1)NC(=O)OC(C)(C)CO [Compound 165, [R-(R*,S*)]-[Iminobis[2-hydroxy-1-(phenylmethyl)-3,1-propanediyl)biscarbamic acid, bis(2-hydroxy-1,1-dimethylethyl) ester] | 620 |
| 100 | CC(C)(C)OC(=O)N[C@@H](Cc1ccccc1)[C@H](O)CNC[C@@H](O)[C@H](Cc1ccccc1)NC(=O)OC1(C)CCOC1 (stereo partly drawn) [Compound 314, [1S-(1R*,2S*)]-[Iminobis[2-hydroxy-1-(phenylmethyl)-3,1-propanediyl]]bis[carbamic acid], 1,1-dimethylethyl-3-methyl-3-tetrahydrofuranyl ester] | 120 |
| 95 | CC(C)(C)OC(=O)N[C@@H](Cc1ccccc1)[C@H](O)CNC[C@@H](O)[C@H](Cc1ccccc1)NC(=O)O[C@@H]1CCc2ccccc21 [Compound 145, [1S-(1R*,2S*)]-[Iminobis[2-hydroxy-1-(phenylmethyl)-3,1-propanediyl)]biscarbamic acid, 1,1-dimethylethyl(R)-2,3-dihydro-1H-inden-1-yl ester] | > 2200 |
